How the values were obtained:
[1] = xn = mol fraction of the nth substance listed
[2] = 100 kPa

O=[N+]([O-])[O-].O=[N+]([O-])[O-].[Cd+2] + O
viscosity [mPa·s], [1], 101.3 kPa
Settings	x1 = 0.0009	x1 = 0.0018	x1 = 0.00893	x1 = 0.0177	x1 = 0.02631	x1 = 0.03478	x1 = 0.05127	x1 = 0.06722	x1 = 0.08263
293.15 K	1.02	1.036	1.166	1.363	1.607	1.912	2.746	3.964	5.664
298.15 K	0.9069	0.9215	1.041	1.219	1.437	1.708	2.443	3.496	4.949
303.15 K	0.8129	0.8263	0.936	1.097	1.293	1.537	2.189	3.11	4.364
308.15 K	0.7336	0.7459	0.8471	0.994	1.171	1.391	1.975	2.789	3.882
313.15 K	0.6664	0.678	0.7712	0.9059	1.067	1.267	1.792	2.521	3.48
318.15 K	0.6085	0.6193	0.7057	0.8296	0.977	1.16	1.637	2.288	3.143
323.15 K	0.5582	0.568	0.6484	0.7627	0.8979	1.066	1.502	2.093	2.855

BrC(Br)Br + CO
[1], 318 K, 101.33 kPa
Settings	viscosity [mPa·s]
x1 = 0.163	0.6935
x1 = 0.3122	0.8844
x1 = 0.4563	1.043
x1 = 0.7234	1.261
x1 = 0.8987	1.383

CCCCCCCl + C1COCCO1
[1], 303.15 K, 101.3 kPa
Settings	viscosity [mPa·s]
x2 = 0.1087	0.6686
x2 = 0.2953	0.7084
x2 = 0.5004	0.7719
x2 = 0.6974	0.8637
x2 = 0.9013	1.004

CCC(C)(C)OC
[2]
Settings	viscosity [mPa·s]
293.15 K	0.439
303.15 K	0.415
313.15 K	0.369
323.15 K	0.335

BrC(Br)Br + COCCO
viscosity [mPa·s], [1], 101.3 kPa
Settings	x1 = 0.097	x1 = 0.198	x1 = 0.297	x1 = 0.401	x1 = 0.499	x1 = 0.6	x1 = 0.697	x1 = 0.798	x1 = 0.9
298.15 K	1.922	2.097	2.22	2.27	2.245	2.183	2.094	2.003	1.932
303.15 K	1.719	1.872	1.984	2.03	2.014	1.972	1.909	1.842	1.794
308.15 K	1.549	1.68	1.774	1.825	1.817	1.792	1.748	1.702	1.676

CCCCCCCCO + CCCO
viscosity [mPa·s], [1], 101 kPa
Settings	298.15 K	308.15 K	318.15 K
x2 = 0.05	7.025	4.92	3.71
x2 = 0.1	6.694	4.637	3.555
x2 = 0.15	6.37	4.394	3.406
x2 = 0.2	6.052	4.183	3.261
x2 = 0.25	5.742	3.995	3.12
x2 = 0.3	5.438	3.824	2.982
x2 = 0.35	5.141	3.663	2.847
x2 = 0.4	4.851	3.507	2.713
x2 = 0.45	4.568	3.353	2.581
x2 = 0.5	4.291	3.197	2.45
x2 = 0.55	4.021	3.036	2.32
x2 = 0.6	3.758	2.869	2.191
x2 = 0.65	3.501	2.696	2.063
x2 = 0.7	3.249	2.517	1.936
x2 = 0.75	3.003	2.333	1.811
x2 = 0.8	2.762	2.147	1.687
x2 = 0.85	2.526	1.962	1.565
x2 = 0.9	2.294	1.782	1.445
x2 = 0.95	2.065	1.612	1.329
